Here are results for 4 compounds from patent US11649195B2, “Smart release nitrogen-containing fertilizer granules” (RYNAN TECHNOLOGIES PTE. LTD., priority 2018, dated 2023).

The pKa is the pH at which an ionisable group is half protonated.

For series [1] the following is noted: of associated acids; cited from earlier work.
The test system of the next series is Brassica integrifolia. Put plainly: Growing Brassica integrifolia in planting pots. It is filed as in vivo. The following applies: day 31 after planting, 10 g fertilizer per pot. As for the experimental part: Fertilizers comprising different functional layers were used for growing Brassica integrifolia. The experiments were done in plastic planting pots containing 5 Kg of a growth media comprising 50% coconut fibers and 50% topsoil. The N, P2O5 and K2O contents in 100 g of the growth media were 7.7 mg, 32 mg and 34 mg, respectively. Ten grams of urea were buried in the growth media at around 3 cm depth as a comparative example (Example 41). Alternatively, 10 grams of various smart N-fertilizers comprising different organic functional layer 104 were buried into the growth media at around 3 cm depth (Examples 42 and following). Then, ten seeds of Brassica integrifolia (also called English spinach) were placed in each planting pot. The planting pots were placed outdoor and wetted with 200 ml water every day.
Smart N-Fertilizers with different organic functional layer comprising tannic acid and its modifiers were used for growing Brassica integrifolia. These experiments were carried out as described above for Examples 42 to 48.
Smart N-Fertilizers with different organic functional layer were used for growing Brassica integrifolia. These experiments were carried out as described above for Examples 42 to 48, with the exception of Example 55 (comparative), in which ten grams of DAP were buried in the growth media at around 3 cm depth as a comparative example.

Where [2] appears, read: Examples 41, 49-54 (tannic acid layers).

On to `O=C(O)Cc1cccc2ccccc12` [1-Naphthalene acetoate, 1-Naphthalene Acetic Acid], for which the pKa in series [1] was 4.23.
`O=C(O)COc1ccc(Cl)cc1` [4-Chlorophenyloxy acetoate, 4-Chlorophenoxyacetic Acid]: in series [1], the pKa is 3.58.
For the compound `N.N.O=P(O)(O)O` [DAP, Diammonium phosphate], in the series on Brassica integrifolia (Examples 55-64 (DAP core)), the Height was determined as 7.60 cm, the Leaf length came to 4.20 cm, the Leaf width worked out at 2.40 cm and the Total yield was found to be 15 gram. The “Weight of 6 plants” value with Brassica integrifolia (Examples 55-64 (DAP core)) is on record as 9 gram.
With `NC(N)=O` [Urea, urea], in the series on Brassica integrifolia (setting [2]), the Height stood at 4.90 cm, the Leaf length was 2.00 cm, the Leaf width is 1.00 cm and the Total yield came out at 5 gram. Further, in the series with Brassica integrifolia (setting [2]), the “Weight of 6 plants” value is 5 gram. Besides, in the series with Brassica integrifolia (Examples 41-48), the Height amounted to 4.90 cm, the Leaf length was found to be 2.00 cm, the Leaf width was 1.00 cm and the Total yield was found to be 5 gram. In addition, in the series on Brassica integrifolia (Examples 41-48), the “Weight of 6 plants” value came to 5 gram.
